In PMC9611449, “Hydroxy-3-Phenylcoumarins as Multitarget Compounds for Skin Aging Diseases: Synthesis, Molecular Docking and Tyrosinase, Elastase, Collagenase and Hyaluronidase Inhibition, and Sun Protection Factor” (Molecules, 2022):
Several values for one entry are separate records, joined by “and”; a condition that tells them apart may be missing. Identical values can stand only once. Entries after “also recorded” stand apart in the source; their conditions may differ. Like-named read-outs stand apart in the source and are kept apart here.

Experiments:
[1] = tested on: Collagenase from Clostridium histolyticum; test: Collagenase inhibition assay (FALGPA substrate); assay type: biochemical; conditions: for Enzyme inhibition Collagenase: 100 μM; for IC50: mean ± SD of three independent experiments
Description: Results from all the inhibition tests described below were reported as a percentage of the blank control. Since the compounds were dissolved in DMSO, in the assays carried out without compounds, DMSO was added to the reaction mixture as blank control. […] Data from activity experiments were recorded using an Ultrospec 2100 spectrophotometer (Biochrom Ltd., Cambridge, UK).
Collagenase from Clostridium histolyticum (1 U/mL) was prepared in 0.05 M Tricine buffer (pH 7.5), with 0.4 M NaCl and 0.01 M CaCl2, and incubated with different concentrations of test samples for 15 minutes. After adding the N-(3-[2-Furyl]-acryloyl)-Leu-Gly-Pro-Ala (FALGPA) substrate, prepared in the same buffer solution reaching a final concentration of 0.8 mM, the absorbance was registered at 340 nm. Epigallocatechin gallate was used as a positive control.

hyaluronidase = biological target: T1, hyaluronidase (Bos taurus, UniProt Q2YDK3); test: Hyaluronidase inhibition assay; assay type: biochemical; conditions: ratio of IC50 values
T1 sequence (Q2YDK3 36-553): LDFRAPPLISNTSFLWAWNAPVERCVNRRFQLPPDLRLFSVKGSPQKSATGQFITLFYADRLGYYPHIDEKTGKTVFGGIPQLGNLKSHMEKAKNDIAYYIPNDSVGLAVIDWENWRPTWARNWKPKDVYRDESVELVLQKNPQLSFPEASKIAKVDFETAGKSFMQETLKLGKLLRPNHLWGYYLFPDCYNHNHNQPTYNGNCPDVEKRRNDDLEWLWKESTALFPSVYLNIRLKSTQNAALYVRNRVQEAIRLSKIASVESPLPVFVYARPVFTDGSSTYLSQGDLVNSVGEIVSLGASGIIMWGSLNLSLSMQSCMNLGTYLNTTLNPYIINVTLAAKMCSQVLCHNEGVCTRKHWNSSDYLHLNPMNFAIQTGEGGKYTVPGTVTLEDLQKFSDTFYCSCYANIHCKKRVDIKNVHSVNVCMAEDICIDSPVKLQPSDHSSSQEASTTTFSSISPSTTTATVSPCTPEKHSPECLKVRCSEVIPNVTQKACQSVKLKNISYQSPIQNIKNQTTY
Description: (§1) Since the compounds were dissolved in DMSO, in the assays carried out without compounds, DMSO was added to the reaction mixture as blank control. […] Data from activity experiments were recorded using an Ultrospec 2100 spectrophotometer (Biochrom Ltd., Cambridge, UK).
Inhibition of hyaluronidase was determined following the method reported by Chompoo and co-authors. A 5 μL test sample was incubated with 100 μL of enzyme solution (1.5 U) containing 20 mM sodium phosphate buffer (pH 7.0) with 77 mM NaCl and bovine serum albumin (BSA) 0.01%. […] After 10 minutes at room temperature, the absorbance was monitored at 600 nm.

mushroom tyrosinase = test: Tyrosinase inhibition assay (L-DOPA substrate); assay type: biochemical; conditions: for Enzyme inhibition Tyrosinase: 50 μM; for IC50: mean ± SD of three independent experiments
Description: as §1
The inhibition of tyrosinase was monitored by using DOPA as substrate. The reaction solution contained phosphate buffer (25 mM, pH 6.8) and mushroom tyrosinase (100 U/mL), with or without test samples.

[2] = biological target: porcine pancreatic elastase (Sus scrofa, UniProt P00772); test: Elastase inhibition assay (SANA substrate); assay type: biochemical; conditions: for inhibition at 50 µM: read-out: Enzyme inhibition Elastase; for IC50: mean ± SD of three independent experiments; for inhibition at 50 µM / Enzyme inhibition Elastase: 50 μM
Sequence of porcine pancreatic elastase (P00772 27-266): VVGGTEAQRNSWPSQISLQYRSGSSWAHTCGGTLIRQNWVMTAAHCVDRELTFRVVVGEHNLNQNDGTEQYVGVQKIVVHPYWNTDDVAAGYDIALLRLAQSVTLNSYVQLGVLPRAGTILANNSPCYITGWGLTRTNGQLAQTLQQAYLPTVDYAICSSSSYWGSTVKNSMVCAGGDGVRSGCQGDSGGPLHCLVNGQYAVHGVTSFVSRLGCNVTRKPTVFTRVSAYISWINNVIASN
Description: as §1
The inhibition of elastase was determined by measuring the production of p-nitroaniline during the reaction of the enzyme with the N-succ-(Ala)3-nitroanilide (SANA) substrate. The assay was carried out in Tris-HCl buffer (0.1 M, pH 8.0) containing porcine pancreatic elastase (3.3 µg/mL). The reaction mixture was incubated in the presence or in the absence of the test compounds for 20 minutes and, once the substrate (1.6 mM) was added, the enzyme activity was monitored at 410 nm.

tyrosinase = conditions: cited from earlier work
[3] = In vitro determination of the sun protection factor (UV absorbance, Mansur equation); assay type: physicochemical; conditions: compounds 0.1 mg/mL, absorbance 290–320 nm
Description: The sun protection factor of coumarins’ derivatives was measured by the UV absorbance method, as previously reported. The absorbances of the compounds (0.1 mg/mL) were registered in the range of 290–320 nm, with 5 nm increments, and three measurements were performed at each point. The SPF was determined by using the Mansur Equation [23]: SPF=CF × Σ290320 × EE(λ) × I(λ) × Abs(λ) where CF = correction factor (10); EE (λ) = erythemogenic effect of radiation with wavelength λ; I(λ) = solar intensity spectrum; Abs(λ) = spectrophotometric absorbance values at wavelength λ. The values of EE (λ) × I(λ) are constant as determined by Sayre et al. (Table 5).

[4] = tested on: Human skin keratinocyte cell line (HaCaT); test: HaCaT cell viability (MTT assay); assay type: cell-based; conditions: 10–200 μM, 24 h
Description: Human skin keratinocyte cell line (HaCaT; CLS–Cell Lines Service, Eppelheim, Germany) was cultured in Dulbecco’s Modified Eagle’s Medium (DMEM) with 10% fetal bovine serum (FBS; Gibco, NY, USA) and 1% penicillin/streptomycin at 37 °C in a humidified atmosphere with 5% CO2. Cell viability was determined by the MTT (3-(4,5-dimethylthiazol-2-yl)-2,5-diphenyltetrazolium bromide) colorimetric assay, as previously reported. Briefly, HaCaT cells were seeded in 96-well plates and incubated with compounds at different concentrations (0–200 µM). After 24 h, cells were labelled with MTT solution for 3 h at 37 °C. DMSO was added to the formed violet formazan precipitates and the absorbance of each well was measured at 560 nm.

[5] = already described by our research group

| Compound | Enzyme inhibition Collagenase [1] | IC50 [1] [µM] | times more active than the reference compound oleanolic acid (hyaluronidase) (hyaluronidase) [times] | Enzyme inhibition Tyrosinase (mushroom tyrosinase) | IC50 (mushroom tyrosinase) | inhibition at 50 µM [2] [%] | IC50 [2] [µM] | IC50 (tyrosinase) [µM] | SPF [3] | Enzyme inhibition Elastase [2] | IC50 (tyrosinase; [5]) [µM] | times more active than the reference compound epigallocatechin gallate (collagenase) ([1]; ratio of IC50 values) [times] | times more active than the standard inhibitor kojic acid (tyrosinase) (mushroom tyrosinase; ratio of IC50 values) [times] | Cytotoxicity on HaCaT cell viability [4] |
| --- | --- | --- | --- | --- | --- | --- | --- | --- | --- | --- | --- | --- | --- | --- |
| O=c1oc2cc(O)c(O)cc2cc1-c1ccc(Br)cc1 [Compound 4, 3-(4′-Bromophenyl)-6,7-dihydroxycoumarin] | N.I. | > 150 | 1.9 | 58.3% | 39.9 ± 0.7 µM | 30.5 | > 50 | – | – | – | – | – | – | – |
| Nc1cc2ccc(O)cc2oc1=O [3-Amino-7-hydroxycoumarin] | – | – | – | – | – | – | – | 50 | – | – | – | – | – | – |
| O=c1oc2ccc3ccccc3c2cc1-c1cccc(O)c1 [Compound 14, 3-(3′-Hydroxyphenyl)benzo[f]coumarin] | 21.2% | > 150 | – | 22.3% | > 50 µM | 35.3 | > 50 | – | 5.08 ± 0.46 | – | – | – | – | – |
| O=c1oc2cc(O)cc(O)c2cc1-c1ccccc1Br [Compound 3, 3-(2′-Bromophenyl)-5,7-dihydroxycoumarin] | 37.1% | 125 ± 10.2 | – | 29.3% | > 50 µM | – | > 50 | – | 5.89 ± 0.21 | N.I | – | – | – | – |
| O=c1oc2cc(O)c(O)cc2cc1-c1cccc(O)c1 [Compound 11, 6,7-Dihydroxy-3-(3′-hydroxyphenyl)coumarin] | 35.7% | 143 ± 7.1 | – | 8.6% | > 50 µM | 29.6 | > 50 | – | 5.44 and 5.44 ± 0.64 | – | – | – | – | – |
| O=c1oc2c(O)c(O)ccc2cc1-c1ccc(Br)cc1 [Compound 7, 3-(4′-Bromophenyl)-7,8-dihydroxycoumarin] | N.I. | > 150 | – | 9.6% | > 50 µM | 15.6 | > 50 | – | 5.88 ± 1.35 | – | – | – | – | – |
| O=c1oc2cc(O)c(O)cc2cc1-c1ccccc1Br [Compound 6, 3-(2′-Bromophenyl)-6,7-dihydroxycoumarin] | 38.1% | 140 ± 8 | – | 25.8% | > 50 µM | 23.8 | > 50 | – | 8.08 and 8.08 ± 0.01 | – | – | – | – | – |
| O=c1oc2cc(O)c(O)cc2cc1-c1cccc(Br)c1 [Compound 5, 3-(3′-Bromophenyl)-6,7-dihydroxycoumarin] | 18.2% | > 150 | – | 80.3% | 8.25 µM and 8.3 µM | 68.4 | 37.4 | – | – | – | – | – | – | – |
| O=c1oc2ccc3ccccc3c2cc1-c1ccccc1O [Compound 15, 3-(2′-Hydroxyphenyl)benzo[f]coumarin] | N.I. | > 150 | – | N.I | > 50 µM | – | > 50 | – | 6.89 ± 3.28 | N.I | – | – | – | – |
| O=c1oc2c(O)c(O)ccc2cc1-c1ccccc1Br [Compound 9, 3-(2′-Bromophenyl)-7,8-dihydroxycoumarin] | 14.7% | > 150 | – | 15.7% | > 50 µM | – | > 50 | – | 4.27 ± 0.91 | N.I | – | – | – | – |
| O=c1ccc2cc(O)c(O)cc2o1 [Esculetin] | – | – | – | – | – | – | – | – | – | – | 43 | – | – | – |
| O=c1oc2cc(O)ccc2cc1-c1cccc(Br)c1 [Compound 10, 3-(3′-Bromophenyl)-7-hydroxycoumarin] | 13.2% | > 150 | – | 56.9% | 42 ± 1.1 µM | 38.9 | > 50 | – | 6.70 ± 1.30 | – | – | – | – | – |
| O=c1oc2c(O)cc(Br)cc2cc1-c1ccc(O)cc1 [6-Bromo-8-hydroxy-3-(4'-hydroxyphenyl)coumarin] | – | – | – | – | – | – | – | – | – | – | 215 | – | – | – |
| O=c1oc2ccc3ccccc3c2cc1-c1ccc(O)cc1 [Compound 13, 3-(4′-Hydroxyphenyl)benzo[f]coumarin] | 51.5% | 96.8 ± 5.9 | – | 23.2% | > 50 µM | 20.7 | > 50 | – | 6.40 ± 1.53 | – | – | 1.25 | – | – |
| O=c1oc2ccc3ccccc3c2cc1-c1ccc(O)c(O)c1 [Compound 16, 3-(3′,4′-Dihydroxyphenyl)benzo[f]coumarin] | 7.9% | > 150 | – | N.I | > 50 µM | 22.8 | > 50 | – | 5.09 ± 1.35 | – | – | – | – | – |
| O=c1oc2cc(O)c(O)cc2cc1-c1ccccc1O [Compound 12, 6,7-Dihydroxy-3-(2′-hydroxyphenyl)coumarin] | 39.3% | 134 ± 6.6 | – | 22.7% | > 50 µM | 24.5 | > 50 | – | 5.64 and 5.64 ± 1.43 | – | – | – | – | – |
| O=c1oc2ccc3ccccc3c2cc1-c1cc(O)cc(O)c1 [Compound 17, 3-(3′,5′-Dihydroxyphenyl)benzo[f]coumarin] | 15.6% | > 150 | – | 10.0% | > 50 µM | 22.4 | > 50 | – | 4.34 ± 0.66 | – | – | – | – | – |
| O=c1oc2cc(O)cc(O)c2cc1-c1cccc(Br)c1 [Compound 2, 3-(3′-Bromophenyl)-5,7-dihydroxycoumarin] | 44.3% | 110 ± 2.8 | – | 79.2% | 7.03 µM and 7 µM | 20.3 | > 50 | – | 4.52 ± 0.22 | – | – | – | 2.6 | non-cytotoxic; also recorded: no toxicity |
| O=c1oc2c(O)cc(O)cc2cc1-c1cc(O)c(O)c(O)c1 [6,8-Dihydroxy-3-(3',4',5'-trihydroxyphenyl)coumarin] | – | – | – | – | – | – | – | – | – | – | 270 | – | – | – |
| O=C(O[C@@H]1Cc2c(O)cc(O)cc2O[C@@H]1c1cc(O)c(O)c(O)c1)c1cc(O)c(O)c(O)c1 [Epigallocatechin gallate, reference compound] | – | 121 ± 6.2 | – | – | – | – | – | – | – | – | – | – | – | – |
| O=c1oc2c(O)c(O)ccc2cc1-c1cccc(Br)c1 [Compound 8, 3-(3′-Bromophenyl)-7,8-dihydroxycoumarin] | 39.9% | 122 ± 4.8 | – | 33.6% | > 50 µM | 2.2 | > 50 | – | 6.94 ± 2.57 | – | – | – | – | – |
